{
  "source": "patent US20250041322A1",
  "about": "“HEAT STRESS RELIEVING AGENT” (Hayashibara Co., Ltd., priority 2018, published 2025)",
  "origin": "cited, not measured here",
  "data": [
    {"smiles": "COc1ccc(C2CC(=O)c3c(O)cc(O[C@@H]4OC(CO)[C@@H](O)C(O)C4O)cc3O2)cc1O", "note": "(stereo partly drawn) [7-O-β-glucosyl hesperetin]", "values": [
      {"measurement": "Water solubility, comparison in words", "value": "more water-soluble than hesperidin"}
    ]}
  ]
}
